{
  "source": "patent US11883459B2",
  "about": "“Thiol isomerases inhibitors for the treatment and prevention of food allergies, allergic diseases, and inflammatory diseases” (WESTERN NEW ENGLAND UNIVERSITY, priority 2018, dated 2024)",
  "key": {"[1]": {"test_system": "bone marrow-derived mast cells (BMMCs)", "assay": "cytokine production from IgE/antigen-activated bone marrow-derived mast cells (ELISA)", "assay_type": "cell-based, BALB/c mice", "settings": "for activation of mast cells: DNP-IgE priming, DNP-BSA challenge; for production of mast cell cytokines such as TNF-a, IL-6, and IL-13: DNP-IgE/DNP-BSA", "method": "In this study, bone marrow-derived mast cells (BMMCs) were treated with the known PDI inhibitors bacitracin and rutin, and mast cell activation was assessed. BMMCs were generated from BALB/c mice and grown in 10 ng/ml IL-3 and 10 ng/ml stem cell factor (SCF) for 4-8 weeks. One million BMMCs in triplicates were cultured with various concentrations of the PDI inhibitors Bacitracin (Bac) and Rutin (RH) for 1 day or 7 days. Some cells were activated by priming cells with DNP-IgE (Dinitrophenyl IgE) antibodies and challenging with DNP-BSA (dinitrophenyl-bovine serum albumin). Cytokine levels (IL-4, IL-13, TNF-alpha, and IL-6 in FIGS. 1A-1D, respectively) were assessed in the supernatants 24 hr later by ELISA. FIG. 1A-1D show treatment of mast cells with PDI inhibitor Bacitracin or Rutin inhibits the activation of mast cells and the production of mast cell cytokines such as TNF-a, IL-6, and IL-13. In this study, BMMCs were treated with the known PDI inhibitor PACMA-31, and mast cell activation was assessed. Bone marrow derived mast cells (BMMCs) were generated from BALB/c mice and grown in 10 ng/ml IL-3 and 10 ng/ml SCF for 4-8 weeks. 1 million BMMCs in triplicates were cultured with 30 μM PACMA-31 (Sigma-Aldrich) for 30 minutes. Some cells were activated by priming cells with DNP-IgE antibodies and challenging with DNP-BSA. Cytokine levels (IL-13, TNF-alpha, and IL-6 in FIGS. 2A-2C) were assessed in the supernatants 6 hrs later by ELISA. FIG. 2A-2C show treatment of mast cells with the specific PDI inhibitor PACMA-31 inhibits the activation of mast cells and the production of mast cell cytokines such as TNF-a, IL-6, and IL-13."}, "[2]": {"test_system": "ovalbumin-induced food allergy", "assay": "mouse model of ovalbumin-induced, mast cell-mediated food allergy", "assay_type": "in vivo, BALB/c mice", "method": "In this study, wild-type (Wt) mice were sensitized and challenged with ovalbumin and treated with PACMA-31 to determine whether PDI inhibition can modulate the development of food allergy. BALB/c mice were sensitized intraperitoneally (i.p.) with 50 μg ovalbumin (OVA) and 1 mg alum on day zero (d0) and d14. On day 28, some groups of mice were challenged intragastrically with 50 mg OVA once a day on 6 alternating days. Some groups of mice were treated with 300 μg PACMA-31 (P-31) intragastrically daily starting d27. […] The development of allergic diarrhea in this model is dependent on mast cell activation. […] In FIGS. 3A-3F, Wt Cont=wild-type, Control; Wt OVA=wild-type, ovalbumin; Wt+P31 Cont=wild-type, PACMA-31, Control; and Wt+P31 OVA=wild-type, PACMA-31, ovalbumin. FIG. 3A-3F show oral treatment of mice undergoing food allergy with PACMA-31 results in attenuation of the allergic response including mast cell protease levels which indicate mast cell activation (mMCP-1), OVA-IgE levels, and Th2 cytokine levels."}, "[3]": {"settings": "known property; cited from earlier work"}, "[4]": {"settings": "wild-type mice, ovalbumin-induced food allergy"}},
  "note": "Where a SMILES comes first, the peptide text is derived from it. Bridges are numbered along the chain shown (N, C = ends). [ ]: non-standard residue; d: D form. The star is where a group is joined. Ileψ(thiazoline)Cys = CC[C@H](C)[C@H](N)C1=N[C@H](C(=O)*)CS1; dOrn = NCCC[C@@H](N)C(=O)O",
  "data": [
    {"smiles": "CC[C@H](C)[C@H](N)C1=N[C@H](C(=O)N[C@@H](CC(C)C)C(=O)N[C@H](CCC(=O)O)C(=O)N[C@H](C(=O)N[C@H]2CCCCNC(=O)[C@H](CC(N)=O)NC(=O)[C@@H](CC(=O)O)NC(=O)[C@H](Cc3cnc[nH]3)NC(=O)[C@@H](Cc3ccccc3)NC(=O)[C@H]([C@@H](C)CC)NC(=O)[C@@H](CCCN)NC2=O)[C@@H](C)CC)CS1", "note": "[Bacitracin, bacitracin] ({Ileψ(thiazoline)Cys}-L[dE]IK[dOrn]I[dF]H[dD]N; lactam 4-C)", "values": [
      {"measurement": "activation of mast cells", "setting": "[1]; BMMCs cultured with various concentrations for 1 day or 7 days, FIGS. 1A-1D", "result": "inhibits"},
      {"measurement": "production of mast cell cytokines such as TNF-a, IL-6, and IL-13", "setting": "[1]; BMMCs cultured with various concentrations for 1 day or 7 days, supernatants 24 hr later by ELISA, FIGS. 1A-1D", "result": "inhibits"}
    ]},
    {"smiles": "C#CC(=O)N(c1ccc(OC)cc1OC)C(C(=O)NCC(=O)OCC)c1cccs1", "note": "(stereo not drawn) [PACMA-31, N-(2,4-dimethoxyphenyl)-N-(1-oxo-2-propyn-1-yl)-2-(2-thienyl)glycylglycine ethyl ester]", "values": [
      {"measurement": "activation of mast cells", "setting": "[1]; BMMCs cultured with 30 μM for 30 minutes, FIGS. 2A-2C", "result": "inhibits"},
      {"measurement": "production of mast cell cytokines such as TNF-a, IL-6, and IL-13", "setting": "[1]; BMMCs cultured with 30 μM for 30 minutes, supernatants 6 hrs later by ELISA, FIGS. 2A-2C", "result": "inhibits"},
      {"measurement": "mast cell protease levels which indicate mast cell activation (serum mMCP-1)", "setting": "[2]; 300 μg intragastrically daily from d27, OVA-sensitized and challenged mice, FIG. 3A", "result": "attenuation"},
      {"measurement": "serum OVA-IgE levels", "setting": "[2]; 300 μg intragastrically daily from d27, OVA-sensitized and challenged mice, FIG. 3B", "result": "attenuation"},
      {"measurement": "Th2 cytokine levels in supernatants of spleen cells restimulated with OVA", "setting": "[2]; 300 μg intragastrically daily from d27, OVA-sensitized and challenged mice, FIGS. 3C-3F", "result": "attenuation"},
      {"measurement": "allergen-specific IgE", "setting": "[2]; [4]", "result": "decreases"},
      {"measurement": "development of food allergy symptoms", "setting": "[2]; [4]", "result": "significant attenuation"},
      {"measurement": "mast cell activation", "setting": "[2]; [4]", "result": "decreases"},
      {"measurement": "allergic diarrhea", "setting": "[2]; wild-type mice, ovalbumin-induced food allergy, observed one hour after 6th challenge", "result": "decreases"},
      {"measurement": "oral bioavailability", "setting": "[3]", "result": "orally bioavailable"}
    ]}
  ]
}
